Experimental data from US20010041706A1, “Blockade of taxane metabolism” (priority 2000, published 2001).

Key:
CYP2C8 = target: T1, CYP2C8 (Homo sapiens, UniProt P10632); details: previously reported; cited from earlier work
T1 sequence (P10632 1-490): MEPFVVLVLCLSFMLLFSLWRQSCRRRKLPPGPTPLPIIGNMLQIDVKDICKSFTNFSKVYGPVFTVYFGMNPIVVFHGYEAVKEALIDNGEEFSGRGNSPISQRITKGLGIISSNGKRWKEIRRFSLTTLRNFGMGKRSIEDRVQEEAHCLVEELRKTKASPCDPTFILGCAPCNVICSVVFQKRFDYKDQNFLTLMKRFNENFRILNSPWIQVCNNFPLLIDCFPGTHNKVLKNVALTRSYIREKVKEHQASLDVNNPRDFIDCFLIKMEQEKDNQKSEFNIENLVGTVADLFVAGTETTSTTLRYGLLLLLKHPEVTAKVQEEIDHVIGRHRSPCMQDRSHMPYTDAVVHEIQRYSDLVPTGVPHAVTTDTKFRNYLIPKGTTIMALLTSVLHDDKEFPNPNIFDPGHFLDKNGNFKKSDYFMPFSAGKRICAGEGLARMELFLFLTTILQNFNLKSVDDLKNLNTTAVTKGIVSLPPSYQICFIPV

paclitaxel metabolism [1] = details: Jamis-Dow et al., Am J. Clin. Oncol. 1997; cited from earlier work
[2] = target: T2, cytochrome P450 2C8 (CYP2C8) (Homo sapiens, UniProt P10632); details: hepatocytes
T2 sequence (P10632 1-490): T1 sequence (P10632 1-490)

[3] = Quercetin levels in mouse liver after oral dose (HPLC); type: in vivo; details: mice receiving oral quercetin 1000 mg/kg
Procedure: Quercetin twelve hours prior to paclitaxel had no effect on system exposure. […] The peak levels of quercetin measured in the livers of mice receiving oral supplementation were approximately 15 μM, and occurred between 8 and 12 hours after the dose.

[4] = target: cytochrome P450 3A4 (CYP3A4) (Homo sapiens, UniProt P08684); details: hepatocytes
cytochrome P450 3A4 (CYP3A4), sequence (P08684 whole entry): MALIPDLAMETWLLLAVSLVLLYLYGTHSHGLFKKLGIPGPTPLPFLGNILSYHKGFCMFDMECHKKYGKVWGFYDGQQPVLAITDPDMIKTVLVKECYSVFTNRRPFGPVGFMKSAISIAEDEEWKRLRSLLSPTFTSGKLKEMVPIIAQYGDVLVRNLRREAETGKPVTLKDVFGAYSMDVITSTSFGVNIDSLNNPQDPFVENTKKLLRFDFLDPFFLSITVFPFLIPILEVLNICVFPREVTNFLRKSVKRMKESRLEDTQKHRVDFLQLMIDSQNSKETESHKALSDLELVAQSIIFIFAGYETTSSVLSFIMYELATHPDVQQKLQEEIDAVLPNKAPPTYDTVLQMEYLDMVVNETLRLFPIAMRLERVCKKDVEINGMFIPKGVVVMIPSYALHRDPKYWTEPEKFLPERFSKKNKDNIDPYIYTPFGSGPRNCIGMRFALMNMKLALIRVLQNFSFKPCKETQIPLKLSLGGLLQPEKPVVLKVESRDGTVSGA

paclitaxel metabolism [5] = assay: Paclitaxel metabolism in primary human hepatocytes, overall; type: cell-based; details: second experiment (FIG. 4), highest concentration tested (50 μM), 24 hours

Structure (SMILES)	inhibition of the metabolism of paclitaxel by CYP2C8 (CYP2C8)	inhibition of paclitaxel metabolism in humans (paclitaxel metabolism [1])	inhibition of paclitaxel metabolism by CYP2C8 [2]	peak levels of quercetin measured in the livers [3]	inhibition of paclitaxel metabolism by CYP3A4 [4]	effect on paclitaxel metabolism (paclitaxel metabolism [5])
O=c1c(O)c(-c2ccc(O)cc2)oc2cc(O)cc(O)c12 [kaempherol]	selectively inhibit	–	–	–	–	–
CC(=O)N1CCN(c2ccc(OCC3COC(Cn4ccnc4)(c4ccc(Cl)cc4Cl)O3)cc2)CC1 (stereo not drawn) [ketoconazole]	–	unable to inhibit paclitaxel metabolism	concentration-dependent manner	–	–	–
O=C1C[C@@H](c2ccc(O)cc2)Oc2cc(O)cc(O)c21 [naringenin]	selectively inhibit	–	–	–	–	–
O=c1c(O)c(-c2ccc(O)c(O)c2)oc2cc(O)cc(O)c12 [quercetin]	selectively inhibit	–	concentration-dependent manner	approximately 15 μM	concentration-dependent manner	modest effect
